Data as given in patent US6947847B2, “Method to design therapeutically important compounds” (Wisconsin Alumni Research Foundation, priority 2002, dated 2005).
pIC50: −log10 of the molar value. Like-named read-outs stand apart in the source and are kept apart here.

Columns and labels:
[1] = biological target: human renin (Homo sapiens, UniProt P00797); details: cited from earlier work
[2] = biological target: porcine pepsin (Sus scrofa, UniProt P00791); assay: Inhibition of substrate hydrolysis by porcine pepsin; format: biochemical
Chain of porcine pepsin (P00791 60-385): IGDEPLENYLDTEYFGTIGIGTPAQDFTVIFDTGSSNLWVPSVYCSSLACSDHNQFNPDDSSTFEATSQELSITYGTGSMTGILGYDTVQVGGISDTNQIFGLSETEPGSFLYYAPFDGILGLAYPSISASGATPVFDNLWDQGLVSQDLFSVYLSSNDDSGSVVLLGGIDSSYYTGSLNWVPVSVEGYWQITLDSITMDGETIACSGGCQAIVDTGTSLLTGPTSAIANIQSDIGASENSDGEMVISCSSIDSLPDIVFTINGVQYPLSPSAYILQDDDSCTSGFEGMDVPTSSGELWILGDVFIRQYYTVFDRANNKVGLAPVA

[3] = biological target: T1, R. chinensis pepsin (Rhizopus chinensis, UniProt P06026); assay: biochemical
T1 sequence (P06026 69-393): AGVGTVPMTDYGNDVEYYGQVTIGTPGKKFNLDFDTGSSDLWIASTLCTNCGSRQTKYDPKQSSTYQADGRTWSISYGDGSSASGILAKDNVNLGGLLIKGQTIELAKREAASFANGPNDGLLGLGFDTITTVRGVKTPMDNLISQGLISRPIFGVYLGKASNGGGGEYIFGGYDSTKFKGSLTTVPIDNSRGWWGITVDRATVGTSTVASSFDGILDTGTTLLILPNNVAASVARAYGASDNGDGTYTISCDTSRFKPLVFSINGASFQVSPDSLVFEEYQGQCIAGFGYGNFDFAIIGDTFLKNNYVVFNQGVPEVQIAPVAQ
Experimental: Inhibition of substrate hydrolysis by porcine pepsin and R. chinensis pepsin was determined using prior art assay conditions. See Flentke et al. (1999) Protein Expression Purif. 16:213 and Peranteau et al. (1995) Anal. Biochem. 227:242.

Chain of human renin (P00797 67-406): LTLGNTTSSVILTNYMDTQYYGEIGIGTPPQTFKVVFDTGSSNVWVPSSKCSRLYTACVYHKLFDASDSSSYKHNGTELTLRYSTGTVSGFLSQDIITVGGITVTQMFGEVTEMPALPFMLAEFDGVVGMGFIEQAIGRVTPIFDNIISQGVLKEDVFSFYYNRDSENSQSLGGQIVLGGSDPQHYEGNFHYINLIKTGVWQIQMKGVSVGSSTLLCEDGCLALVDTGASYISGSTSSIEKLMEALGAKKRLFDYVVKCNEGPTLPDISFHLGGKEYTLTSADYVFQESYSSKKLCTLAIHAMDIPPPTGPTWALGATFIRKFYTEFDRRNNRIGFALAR

In the case of `COc1ccc(CO[C@H]2CNCCC2c2ccc(Cl)cc2)cc1` (stereo partly drawn) [Compound 4], the “concentrations at which renin is inhibited (in words)” value ([1]; human renin, literature) is given as “low micromolar” and the pIC50 ([1]; read-out: inhibits renin at, renin, literature value) is given as ~4.59.

For `O=C(COc1ccc([C@H]2CCNC[C@@H]2OCc2ccc(Br)cc2)cc1)c1ccc2ccccc2c1` [Compound 11], the pIC50 ([2]; porcine pepsin, read-out: IC50) was 6.70 and the pIC50 [3] was 6.70.

With `Brc1ccc(CO[C@H]2CNCC[C@@H]2c2ccccc2)cc1` [Compound 12] the pIC50 [2] was 5.70 and the pIC50 ([3]; R. chinensis pepsin, read-out: IC50) was 5.70.
